Test results taken from US11952364B2, “TRK inhibitors useful as anticancer drugs” (TYLIGAND BIOSCIENCE (SHANGHAI) LIMITED, priority 2018, dated 2024).

Assays:
[1] = system: FLT3(ITD); assay: KINOMEscan competition binding assay; set-up: species or system human; conditions: 2 μM
Experimental: The experiment was performed according to the standard kinase activity determination protocol by Eurofins DiscoverX Corporation (11180 Roselle St. Suite D, San Diego, CA, USA, www.discoverX.com). Specifically, the experiment was conducted using the KINOMEscan™ screening platform, which adopts an active site-directed competition binding assay to quantitatively measure the interaction between test compounds and more than hundreds of human kinases and disease-related mutants. The working principle of the screening platform and kinase assay methods are well known in the art, for example, see www.discoverX.com.

[2] = Metabolic stability in liver microsomes (overall statement); type: in vitro ADME; conditions: statement in words
Text: According to standard methods conventional in the art for in vitro metabolic stability studies, for example those protocols described in Kems, Edward H. and Di Li (2008). Drug-like Properties: Concepts. Structure Design and Methods: from ADME to Toxicity Optimization. San Diego: Academic Press; Di, Li et al., Optimization of a Higher Throughput Microsomal Stability Screening Assay for Profiling Drug Discovery Candidates, J. Biomol. Screen. 2003, 8(4), 453., the metabolic stability test in liver microsomes of the present compound was performed analogously as follows.
The in vitro metabolic stability of the compound in 5 species (mouse, rat, dog, monkey, and human) was evaluated by liver microsomal stability test. 0.1M potassium phosphate buffer solution (pH 7.4, containing 1.0 mM EDTA) was prepared. The test compound and the control compound were prepared into a 10 mM DMSO solution, and then 10 μL of the 10 mM DMSO compound solution was added to 190 μL of acetonitrile to prepare a 500 μM compound solution. […]
The natural logarithm of the residue percentage at each time point was subjected to linearly regression as a factor of incubation time to obtain Slope k, and then the liver microsome clearance rate (CLint^mic) and in vitro half-life (T½) were calculated according to the following formula: […]

Question: With COc1ccc(C(=O)Nc2ccc(Oc3cc4cnn(C)c4cc3-c3cn[nH]c3)c(F)c2)c(=O)n1-c1ccc(F)cc1 [Example 12, N-(3-fluoro-4-(1-methyl-6-(1H-pyrazol-4-yl)-1H-indazol-5-yloxy)phenyl)-1-(4-fluorophenyl)-6-methoxy-2-oxo-1,2-dihydropyridine-3-carboxamide] as the molecule, how does the “% inhibition” value [1] read?
Answer: 98%

Question: And the “metabolic stability in liver microsomes compared with Merestinib” value [2]?
Answer: significantly improved metabolic stability in liver microsomes
